Laboratory results from publication PMC10539350 (Scientific Reports, 2023).
≈ marks a conversion by molar mass, not a printed value. Like-named read-outs stand apart in the source and are kept apart here.

Columns and labels:
[1] = cited from earlier work
[2] = cited from earlier work; remark: listed apart in the source
physchem = type: physicochemical; details: for CHIC18: C18 column, pH 7.4, ACN gradient; for chromatographic logD: pH 7.4
Description: For HPLC analyses Prominence-1 LC-2030C 3D HPLC system (Shimadzu, Japan) equipped with a DAD detector and controlled by LabSolution system (version 5.90 Shimadzu, Japan) was used. Two different chromatography columns packed with surface-modified silica were utilized in this study: • Octyldecylsilane (C18 Hypersil GOLD™; 50 mm × 4.6 mm; 5.0 µm; Thermo Scientific, USA) • Immobilized artificial membrane (IAM.PC.DD2; 10 × 4.6 mm × 10.0 µm; Regis Technologies; USA).
Both columns were equipped with guard precolumn containing the same silica-modified bed as the main column. All measurements were carried out using the protocol proposed by Valko[19] and co-workers and adopted in our laboratory. Briefly, methods developed by Valko offered the determination of Chromatographic Hydrophobicity Index (CHI) indices using one gradient elution experiment. Ammonium acetate buffer (50 mM, pH 7.4) and acetonitrile (ACN) were used as the mobile phase at a 1.5 mL/min flow rate. The gradient range varies depending on the column type: • For C18 starting from 2 to 98% ACN in 5.25 min. The maximum concentration of ACN was applied for 1.75 min. • For IAM starting from 0 to 85% ACN in 5.25 min. The maximum concentration of ACN was used for 0.5 min.
During the chromatographic separation, the temperature was stable at 30 °C. […] The injected volume was 10 μL, whereas the concentration of solutes was at level 100 μg/mL. All studied compounds were dissolved in DMSO. Each chromatographic experiments run in triplicate. […] Retention times for studied molecules and reference standards are collected in supplementary materials, Tables S1, S2 and S3, respectively.
Next, the CHIC18 values were converted into lipophilicity indices CHI log D using Eq. […]

M. tuberculosis H37Rv [3] = test: tuberculostatic activity, broth microdilution MIC (Alamar blue); type: cell-based, Mycobacterium tuberculosis; details: for MIC: Mycobacterium tuberculosis, 504 h, M. tuberculosis H37Rv, read-out: Minimal inhibitory concentration; for activity in words: toward standard and susceptible strains
[4] = tested on: M. tuberculosis SIR Ciprofloxacin susceptible 168/22; test: as above; type: cell-based, Mycobacterium tuberculosis; details: for MIC: Mycobacterium tuberculosis, read-out: Minimal inhibitory concentration; for activity in words: susceptible bacteria
[5] = IAM-HPLC affinity to phospholipids (CHI protocol); type: physicochemical; details: for log kIAM: 0.045*CHIIAM+0.42; for CHIIAM: IAM column, pH 7.4, ACN gradient
M. tuberculosis H37Rv [6] = type: cell-based, Mycobacterium tuberculosis; details: derivative 6 at 1/2 MIC
[7] = tested on: human immortal keratinocyte cell line (HaCaT); details: cited from earlier work
[8] = tested on: Mycobacterium tuberculosis strains (H37Rv, 22/22, 168/22); test: synergism-antagonism evaluation, summary over all strains; type: cell-based
[9] = tested on: human colon cancer cells (HCT-116); details: cited from earlier work
[10] = calibration set on the IAM column, CHI index, Table S3 ref 19
[11] = calibration set on the C18 column, literature CHI index, Table S2 ref 19
[12] = 21 days 37 °C, Middlebrook 7H9 + OADC
[13] = determined in an earlier study ref 15

SMILES	CHIC18 (physchem)	chromatographic logD (physchem)	MIC (M. tuberculosis H37Rv [3]; [12]) [µg/mL]	MIC [4] [µg/mL]	log kIAM [5]	CHIIAM [5]	further results
CCCCC(=O)c1ccccc1 [Valerophenone]	–	–	–	–	–	–	CHIIAM [1, 10]: 37.3; CHIC18 [2, 11]: 96,2
CCCCCCC(=O)c1ccccc1 [Heptanophenone]	–	–	–	–	–	–	CHIIAM [1, 10]: 45.7
CC1CCC(C(C)C)C(OC(=O)CN2CCN(c3cc4c(cc3F)c(=O)c(C(=O)O)cn4C3CC3)CC2)C1 (stereo not drawn) [Compound 2]	127.44	5.22	0.5	2 (≈ 3.79 µM)	2.53	46.88	–
CCCC(=O)c1ccccc1 [Butyrophenone]	–	–	–	–	–	–	CHIIAM [1, 10]: 32; CHIC18 [2, 11]: 87,5
CC1CCC(C(C)C)C(OC(=O)CCCCOC(=O)c2cn(C3CC3)c3cc(N4CCN(CCCCC(=O)OC5CC(C)CCC5C(C)C)CC4)c(F)cc3c2=O)C1 (stereo not drawn) [Compound 7]	170.54	7.49	–	256 (≈ 317 µM)	2.92	55.54	MIC (M. tuberculosis H37Rv [3]; […]): 256 µg/mL (≈ 317 µM); activity in words (M. tuberculosis H37Rv [3]): not active
Cc1ccc(C(C)C)c(OC(=O)CN2CCN(c3cc4c(cc3F)c(=O)c(C(=O)O)cn4C3CC3)CC2)c1 [Compound 10]	111.26	4.37	1	1 (≈ 1.92 µM)	–	42.88	–
CC(=O)c1ccccc1 [Acetophenone]	–	–	–	–	–	–	CHIIAM [1, 10]: 17.2; CHIC18 [2, 11]: 65,1
Cc1ccc(C(C)C)c(OCC(=O)N2CCN(c3cc4c(cc3F)c(=O)c(C(=O)O)cn4C3CC3)CC2)c1 [Compound 9]	129.41	5.33	256	256 (≈ 491 µM)	2.38	43.58	activity in words (M. tuberculosis H37Rv [3]): not active
c1ccc2[nH]cnc2c1 [Benzimidazole]	–	–	–	–	–	–	CHIC18 [2, 11]: 34,3
CC1CCC(C(C)C)C(OC(=O)CCN2CCN(c3cc4c(cc3F)c(=O)c(C(=O)O)cn4C3CC3)CC2)C1 (stereo not drawn) [Compound 3]	129.99	5.36	2	2 (≈ 3.69 µM)	2.65	49.56	–
CC1CCC(C(C)C)C(OCC(=O)N2CCN(c3cc4c(cc3F)c(=O)c(C(=O)O)cn4C3CC3)CC2)C1 (stereo not drawn) [Compound 1]	112.24	4.43	32	256 (≈ 485 µM)	2.47	45.54	activity in words (M. tuberculosis H37Rv [3]): not active
Cc1ccc(C(C)C)c(OC(=O)CCCCCOC(=O)c2cn(C3CC3)c3cc(N4CCN(CCCCCC(=O)Oc5cc(C)ccc5C(C)C)CC4)c(F)cc3c2=O)c1 [Compound 16]	144.84	6.14	4	4 (≈ 4.85 µM)	2.64	49.33	–
CC(=O)Nc1ccc(O)cc1 [Paracetamol]	–	–	–	–	–	–	CHIIAM [1, 10]: 2.9
CO[C@H]1/C=C/O[C@@]2(C)Oc3c(C)c(O)c4c(O)c(c(/C=N/N5CCN(C)CC5)c(O)c4c3C2=O)NC(=O)/C(C)=C\C=C\[C@H](C)[C@H](O)[C@@H](C)[C@@H](O)[C@@H](C)[C@H](OC(C)=O)[C@@H]1C [Rifampicin, reference compound]	–	–	0.5	64 (≈ 77.8 µM)	–	–	activity in words [4]: poor activity
O=C(O)c1cn(C2CC2)c2cc(N3CCNCC3)c(F)cc2c1=O [Ciprofloxacin, reference compound]	–	–	–	–	–	–	CHIIAM [1, 13]: 19.70; log kIAM [1, 13]: 1.31; CHIC18 [2, 13]: 35.61
CC[C@@H](CO)NCCN[C@@H](CC)CO [Ethambutol, reference compound]	–	–	0.25	0.5 (≈ 2.45 µM)	–	–	–
CC(=O)NC[C@H]1CN(c2ccc(N3CCOCC3)c(F)c2)C(=O)O1 [Linezolid, reference compound]	–	–	0.003	0.007 (≈ 0.0207 µM)	–	–	MIC for reference drug in the presence of derivative 6 (M. tuberculosis H37Rv [6]): 0.0015 µg/mL

SMILES	CHIC18 (physchem)	chromatographic logD (physchem)	MIC (M. tuberculosis H37Rv [3]; [12]) [µg/mL]	MIC [4] [µg/mL]	log kIAM [5]	CHIIAM [5]	further results
[H]/N=C(/N)N[C@H]1[C@H](O)[C@@H](O)[C@H](O[C@@H]2O[C@@H](C)[C@](O)(C=O)[C@H]2O[C@@H]2O[C@@H](CO)[C@H](O)[C@@H](O)[C@@H]2NC)[C@@H](N/C(N)=N\[H])[C@@H]1O [Streptomycin, reference compound]	–	–	0.25	64 (≈ 110 µM)	–	–	activity in words [4]: poor activity
CC(=O)Nc1ccccc1 [Acetanilidine]	–	–	–	–	–	–	CHIIAM [1, 10]: 11.5
Cc1ccc(C(C)C)c(OC(=O)CCCN2CCN(c3cc4c(cc3F)c(=O)c(C(=O)O)cn4C3CC3)CC2)c1 [Compound 12]	115.60	4.6	0.5	0.5 (≈ 0.91 µM)	2.48	45.75	–
Cc1ccc(C(C)C)c(OC(=O)CCCCCN2CCN(c3cc4c(cc3F)c(=O)c(C(=O)O)cn4C3CC3)CC2)c1 [Compound 14]	121.48	4.91	0.5	0.5 (≈ 0.866 µM)	2.68	50.29	–
CC1CCC(C(C)C)C(OC(=O)CCCCCOC(=O)c2cn(C3CC3)c3cc(N4CCN(CCCCCC(=O)OC5CC(C)CCC5C(C)C)CC4)c(F)cc3c2=O)C1 (stereo not drawn) [Compound 8]	179.66	7.97	4	4 (≈ 4.78 µM)	3.02	57.85	–
CC1CCC(C(C)C)C(OC(=O)CCCN2CCN(c3cc4c(cc3F)c(=O)c(C(=O)O)cn4C3CC3)CC2)C1 (stereo not drawn) [Compound 4]	132.45	5.49	0.5	0.5 (≈ 0.9 µM)	2.82	53.32	–
CC(C)[C@@H]1CC[C@@H](C)C[C@H]1OC(=O)CCCCCN1CCN(c2cc3c(cc2F)c(=O)c(C(=O)O)cn3C2CC2)CC1 [Compound 6, 1‐cyclopropyl‐6‐fluoro‐7‐{4‐[6‐((1R,2S,5R)‐2‐isopropyl‐5‐methylcyclohexyloxy)‐6‐oxohexyl]piperazin‐1‐yl}‐4‐oxo‐1,4‐dihydroquinoline‐3‐carboxylic acid]	139.48	5.86	1	1 (≈ 1.71 µM)	2.74	51.47	cytotoxic effect [7]: no cytotoxic effect; FICI values, derivative 6 with Linezolid [8]: 1.0; interaction type from FICI [8]: indifference (key: synergism (FICI ≤ 0.5); indifference (> 0.5 FICI ≤ 4); antagonism (FICI > 4)); IC50 ([9]; HCT-116, MTT assay ref 10): 29.5 ± 2.1 µM; selectivity index ([9]; HCT-116 versus HaCaT ref 10): 3.4
CCCCCC(=O)c1ccccc1 [Hexanophenone]	–	–	–	–	–	–	CHIIAM [1, 10]: 41.8
Cc1ccc(C(C)C)c(OC(=O)CCCOC(=O)c2cn(C3CC3)c3cc(N4CCN(CCCC(=O)Oc5cc(C)ccc5C(C)C)CC4)c(F)cc3c2=O)c1 [Compound 15]	135.98	5.67	64	64 (≈ 83.3 µM)	2.47	45.54	activity in words (M. tuberculosis H37Rv [3]): not active
CCCCCCCC(=O)c1ccccc1 [Octanophenone]	–	–	–	–	–	–	CHIIAM [1, 10]: 49.4
CCC(=O)c1ccccc1 [Propiophenone]	–	–	–	–	–	–	CHIIAM [1, 10]: 25.9; CHIC18 [2, 11]: 77,5
Cn1c(=O)c2[nH]cnc2n(C)c1=O [Theophylline]	–	–	–	–	–	–	CHIC18 [2, 11]: 18,4
CC1CCC(C(C)C)C(OC(=O)CCCCN2CCN(c3cc4c(cc3F)c(=O)c(C(=O)O)cn4C3CC3)CC2)C1 (stereo not drawn) [Compound 5]	134.85	5.61	4	4 (≈ 7.02 µM)	2.62	48.95	–
Cc1ccc(C(C)C)c(OC(=O)CCN2CCN(c3cc4c(cc3F)c(=O)c(C(=O)O)cn4C3CC3)CC2)c1 [Compound 11]	113.95	4.52	1	1 (≈ 1.87 µM)	2.42	44.44	–
NNC(=O)c1ccncc1 [Isoniazid, reference compound]	–	–	0.0625	0.5 (≈ 3.65 µM)	–	–	–
Cc1ccc(C(C)C)c(OC(=O)CCCCN2CCN(c3cc4c(cc3F)c(=O)c(C(=O)O)cn4C3CC3)CC2)c1 [Compound 13]	117.28	4.69	2	2 (≈ 3.55 µM)	2.53	46.96	–
